Measurements reported in US10690666B2, “Methods and compositions for modulating TH-GM cell function” (National University of Singapore, priority 2014, dated 2020).

Key:
Format in all cases: cell-based, mouse
[1] = tested on: BMDCs; assay: Cytokine expression by bone marrow-derived dendritic cells (BMDCs)
Source text: (§1) FIGS. 34A-34I depicts GM-CSF mediates proinflammatory cytokine expression by myeloid cells and synovial fibroblasts in arthritic mice. Synovial tissues were dissected from wild-type AIA mice and dissociated into single cell suspensions. (FIG. 34A) Flow cytometry plots depicting the fractionation into different populations based on differential expression of surface markers. (FIG. 34B) The mRNA expression of several proinflammatory cytokines in sorted CD45^+ TCRβ^+ (TCRβ^+ in short), CD45^+ TCRβ^−CD11c^−CD11b^+ (CD11b^+) and CD45^+ TCRβ^−CD11c^+ (CD11c^+) populations was measured by qPCR. The qPCR data were normalized to GAPDH. (FIG. 34C) The mRNA expression of IL-6, IL-1β and TNF-α in sorted Ly6C^hiLy6G^− and Ly6C^loLy6G^hi populations (gated on CD11b^+ cells). The qPCR data were normalized to GAPDH. (FIGS. 34D and 34E) The mRNA expression of IL-6 and IL-1β by BMDMs (FIG. 34D) and BMDCs (FIG. 34E) upon stimulation with 20 ng/ml GM-CSF for 1 h. The qPCR data were normalized to GAPDH. (FIGS. 34F and 34G) BMDMs (FIG. 34F) and BMDCs (FIG. 34G) were stimulated with GM-CSF at indicated concentrations (n=3 per group) for 18 h. The secretion of IL-6 in the culture supernatant was quantified by ELISA. (FIG. 34H) BMDMs were primed with LPS (100 μg/ml) in the presence of GM-CSF at indicated concentrations (n=3 per group) for 6 h, followed by stimulation with ATP (5 mM) for 30 min. The secretion of IL-1β in the culture supernatant was quantified by ELISA. (FIG. 34I) Cells were cultured in DMEM medium supplemented with 10% FBS for over 20 days with more than 5 passages to obtain synovial fibroblasts. Synovial fibroblasts were stimulated with GM-CSF (20 ng/ml) for 1 h and harvested for RNA extraction. The mRNA expression of IL-1β was measured by qPCR. The qPCR data were normalized to GAPDH. All data shown represent two independent experiments. *p<0.05, **p<0.01.
To test the regulatory role of GM-CSF in the expression of IL-6 and IL-1β, bone marrow-derived macrophages (BMDMs) and bone marrow-derived dendritic cells (BMDCs) were cultured, and stimulated with GM-CSF. […]

[2] = tested on: neutrophils; assay: In vitro neutrophil transmigration assay; settings: as chemoattractant; 3 h
Method: FIGS. 33A-33C depicts GM-CSF enhances neutrophil transmigration and delay apoptosis in vitro. (FIG. 33A) Percentages of migrated neutrophils with or without GM-CSF as chemoattractant in transmigration assay at 3 h post start. (FIG. 33B) Microscopic images of CFSE-labeled neutrophils in the bottom of the lower chamber in transmigration assay. (FIG. 33C) Sorted neutrophils were cultured in vitro with or without GM-CSF (20 ng/ml) for 24 h. Neutrophils undergoing apoptosis were examined by Annexin V and propidium iodide (PI) co-staining. A representative flow cytometry of three repeats was shown. *p<0.05.
Neutrophils are recruited during inflammation, in which complex interactions between neutrophils and vascular endothelial cells direct neutrophil adhesion and transmigration from circulation to inflamed tissues (Kolaczkowska and Kubes, 2013). […] Effective neutrophil apoptosis is crucial for the resolution of inflammation. However, in synovitis, neutrophil apoptosis is delayed with a result of extended survival and persistent inflammation (Wright et al., 2014). […] To determine the critical role of neutrophils in AIA, \ neutralizing antibody (1A8) specific for Ly6G was used to deplete neutrophils in vivo. […] Thus, neutrophils accumulation mediated by TH-cell-derived GM-CSF are important for AIA development.

[3] = tested on: BMDMs; assay: Cytokine expression by bone marrow-derived macrophages (BMDMs)
Source text: as §1
To test the regulatory role of GM-CSF in the expression of IL-6 and IL-1β, bone marrow-derived macrophages (BMDMs) and bone marrow-derived dendritic cells (BMDCs) were cultured, and stimulated with GM-CSF. […] To induce mature IL-1β secretion, BMDMs were primed with LPS for 6 h during which different concentrations of GM-CSF was added, followed by ATP stimulation. […] An inducible effect of GM-CSF on TNF-α expression was not observed in BMDMs, BMDCs or synovial fibroblasts (data not shown). Given the functional importance of IL-6 and IL-1β in arthritis development (Choy and Panayi, 2001), TH-cell-secreted GM-CSF may mediate synovial inflammation also via eliciting the expression of IL-6 and IL-1β from myeloid cells and synovial fibroblasts.

[4] = tested on: synovial fibroblasts; assay: Cytokine mRNA expression by synovial fibroblasts
Source text: as §1, with “(FIG. 34H) BMDMs were primed with LPS (100 μg/ml) in the presence of GM-CSF at indicated concentrations (n=3 per group) for 6 h, followed by stimulation with ATP (5 mM) for 30 min.” left out, “(FIG. 34I) Cells were cultured in DMEM medium supplemented with 10% FBS for over 20 days with more than 5 passages to obtain synovial fibroblasts. Synovial fibroblasts were stimulated with GM-CSF (20 ng/ml) for 1 h and harvested for RNA extraction.” left out, “The qPCR data were normalized to GAPDH. All data shown represent two independent experiments. *p<0.05, **p<0.01.” left out

For “GM-CSF: granulocyte macrophage colony-stimulating factor (ImmunoTools) given intraarticularly or added to cell cultures”, which “mRNA expression of IL-6 and IL-1β in BMDCs” value ([1]; 20 ng/ml, 1 h) is on record?
The value was “quickly upregulated”.

And the “secretion of IL-6 from BMDCs” value ([1]; 18 h, ELISA)?
Its value is “markedly increased”.

What about the “TNF-α expression in BMDCs” value ([1]; data not shown) of the same substance?
Its value is “not observed”.

And the “neutrophil adhesion and migration across monolayers of endothelial cells” value [2]?
The value was “significantly enhanced”.

And the “mRNA expression of IL-6 and IL-1β in BMDMs” value ([3]; 20 ng/ml, 1 h)?
The value was “quickly upregulated”.

And the “secretion of IL-6 from BMDMs” value ([3]; 18 h, ELISA)?
The value was “markedly increased”.

And the “secretion of IL-1β from BMDMs” value ([3]; LPS priming 6 h, then ATP 30 min, ELISA)?
Its value is “significantly enhanced”.

What about the “TNF-α expression in BMDMs” value ([3]; data not shown) of the same substance?
The value was “not observed”.

What about the “IL-1β mRNA expression in synovial fibroblasts” value ([4]; 20 ng/ml, 1 h) of the same substance?
Its value is “increased IL-1β mRNA expression”.

What about the “TNF-α expression in synovial fibroblasts” value ([4]; data not shown) of the same substance?
Its value is “not observed”.
